“Also recorded” adds a separate entry of the source.
Experiments:
DAT = DAT (Homo sapiens, UniProt Q01959); assay: QSAR model predicted IC50, DAT; settings: ratio = 1/DAT IC50:1/SERT IC50, from predicted IC50
Method: In silico studies (QSAR and docking) are useful tools to understand drug mechanisms, and they are relatively cheaper and faster than experiments. A QSAR model was created for each monoamine transporter. Additionally, the docking properties of phenethylamines were investigated.
QSAR: DAT, SERT and NET IC50 values were collected from the literature for 73 phenethylamines. Three different software's were used for descriptor calculations, and almost 2000 descriptors were calculated. Highly correlated descriptors were eliminated before multi-linear regression (MLR) analysis. All descriptors were merged with experimental inhibition values in QSARiNS software. The multi-Criteria Decision-Making tool of QSARiNS was used to pick the best model.
The predicted IC^50 (mM) values of the test molecules generated based on the QSAR developed as described above are presented in Table 4.

C57 and BTBR mice [1] = assay: Social preference procedure: novelty preference test; assay type: in vivo, mouse; settings: 1 mg/kg IP
Method: All drugs were dissolved in physiological 0.9% saline and administered at a constant volume of 1 ml/100 g body weight. Because all drugs utilized in these studies were synthesized as hydrochloride (HCl) salts, they were weighed as salts prior to the preparation of all solutions. All drugs at all concentrations are readily dissolved in an aqueous solution at normal pH. Injections of all drugs were administered intraperitoneally (IP) to mimic pharmacokinetic parameters typical of oral administration, without the behaviour-impairing effects of gavage stress.
This assay was conducted in adult male C57 and BTBR mice (n=6 per group) in a dedicated conditioning room where ambient light, sound, and human contact were tightly controlled.
Social preference chambers consisted of two polycarbonate boxes (13.5 cm wide×22.5 cm tall×31.0 cm deep), floored with rough-textured black ABS plastic, and connected to one another by a 1.25″ PVC T-junction. An infrared photobeam emitter/detector array was mounted at each intersection of the T-junction and each preference compartment, and as a mouse traversed the apparatus, it would break the photobeam upon entry to or exit from each preference compartment. Beam breaks started or stopped a counter on an interfaced computer, allowing automated collection of time spent in each compartment. At the end of each test, data were reported as time (in seconds) spent in each compartment, the number of entries into each compartment, and the average time spent in each compartment following an entry. Social preference tests were conducted in an iterative manner, with each test subject completing four distinct phases as described below. Between testing sessions, chambers were sanitized by wiping the insides with a disinfectant product provided by the UAMS Department of Laboratory Animal Medicine. At the end of the week (upon completion of all phases of the procedure), each apparatus was disassembled and all parts were sanitized. No food or water were available during social preference sessions, but were available in the home cage immediately afterwards. […]

C57 and BTBR mice [2] = assay: Conditioned place preference; assay type: in vivo, mouse; settings: 1.0 mg/kg, x3 pairings, C57 mice
Method: The same 2-compartment chambers as described above in the social preference studies for conditioned place preference. For these studies, compartments are differentiated by floor texture (rough black plastic vs steel punch plate) and wall pattern (vertical vs. horizontal stripes.) An initial preference/habituation test was first run where mice were able to freely traverse the apparatus for 30 minutes. The following day, mice were assigned to receive saline in one compartment and drug in the other. Saline pairings occurred in the morning, drug pairings occurred in the afternoon, and were separated by at least 4 hours, during which time mice returned to their home cages. Three such pairings were performed, where mice were injected, returned to the home cage for a 15 min pretreatment period, then confined to the injection-appropriate compartment for 30 minutes. Half the subjects (within strain) received drug pairings on the plastic floor+vertical stripes side, and the other half received drug pairings on the punch plate floor+horizontal stripes side. […] The post-conditioning preference test was identical to the initial preference/habituation session, where mice were freely able to traverse the apparatus for 30 minutes. Time spent in each compartment was recorded, and expressed as a preference score for the drug paired side (calculated as time spent in that compartment during the post-test—time spent there during the pre-test.) All preference and conditioning sessions were conducted under the same low light conditions as in the social preference tests.

C57 and BTBR mice [3] = assay: Tail cuff blood pressure monitoring (CODA non-invasive system); assay type: in vivo, mouse; settings: for toxicity (blood pressure) relative to racemic MDMA: IP
Method: The 8 chamber CODA™ Non-invasive blood pressure system was set up to monitor the blood pressure of C57 and BTBR mice. Mice were habituated to restraint, saline injection (IP), and tail-cuff pressure monitoring for at least three days before drug administration. Across days, groups of habituated mice were injected IP with increasing doses of test drug, in this case (R)-I, (S)-I and (R/S)-I, then returned to the home cage for 30 min. Tail cuff pressure monitoring then determined effects on systolic, diastolic, and mean arterial pressure in restrained C57 and BTBR mice in sessions lasting ˜30 min.
In the tail cuff pressure monitoring, an occlusion tail cuff was inflated to impede the blood flow to the tail. The cuff was deflated slowly, and a second tail cuff, incorporating the VPR sensor, measured the physiological characteristics of the returning blood flow. As the blood returned to the tail, the VPR sensor cuff measured the tail swelling resulting from arterial blood flow pulsations. Systolic blood pressure was automatically measured at the first appearance of tail swelling. Diastolic blood pressure was automatically measured when the increasing rate of swelling ceased in the tail.

Chain of DAT (Q01959 whole entry, species assumed): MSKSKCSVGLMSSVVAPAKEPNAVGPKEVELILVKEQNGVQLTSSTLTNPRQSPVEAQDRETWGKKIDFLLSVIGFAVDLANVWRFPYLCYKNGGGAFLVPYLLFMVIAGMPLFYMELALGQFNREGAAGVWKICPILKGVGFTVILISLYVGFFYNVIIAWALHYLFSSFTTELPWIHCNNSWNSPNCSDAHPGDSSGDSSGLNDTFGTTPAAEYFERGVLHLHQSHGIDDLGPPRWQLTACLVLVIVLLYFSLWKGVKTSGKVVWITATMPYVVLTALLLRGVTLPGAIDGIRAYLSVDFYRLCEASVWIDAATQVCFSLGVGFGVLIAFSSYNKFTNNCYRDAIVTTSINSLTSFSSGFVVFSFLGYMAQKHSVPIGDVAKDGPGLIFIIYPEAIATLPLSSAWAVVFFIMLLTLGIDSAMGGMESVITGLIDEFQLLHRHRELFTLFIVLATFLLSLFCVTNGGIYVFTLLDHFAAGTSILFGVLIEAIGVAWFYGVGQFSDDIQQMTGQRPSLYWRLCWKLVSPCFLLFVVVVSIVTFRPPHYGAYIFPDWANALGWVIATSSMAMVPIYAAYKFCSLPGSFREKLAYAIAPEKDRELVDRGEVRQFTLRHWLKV

Compound	DAT/SERT (calculated) (DAT)	effect on novelty preference (time spent with dummy mouse) (C57 and BTBR mice [1])	place conditioning (place preference) (C57 and BTBR mice [2])	cardiovascular effects (systolic, diastolic, mean arterial pressure) (C57 and BTBR mice [3]; 10 mg/kg and 30 mg/kg IP, C57 and BTBR mice)	toxicity (blood pressure) relative to racemic MDMA (C57 and BTBR mice [3])	blood pressure rise relative to racemic MDMA and S-methamphetamine (C57 and BTBR mice [3]; both strains)	systolic and diastolic blood pressure (C57 and BTBR mice [3]; 10 mg/kg i.p.)
c1cc2c(cc1C[C@H]1CCCN1)OCO2 [(R)-I, (R)-2-[(2H-1,3-benzodioxol-5-yl)methyl]pyrrolidine]	0.022	no systematic effects	neither 1.0 mg/kg (R)-I nor 1.0 mg/kg (S)-I elicited significant place preferences; also recorded: negligible effects	lower impact on cardiovascular effects than (S)-I	significantly less toxic	significantly lower	
c1cc2c(cc1C[C@@H]1CCCN1)OCO2 [(S)-I, (S)-2-[(2H-1,3-benzodioxol-5-yl)methyl]pyrrolidine]	0.043	no systematic effects	neither 1.0 mg/kg (R)-I nor 1.0 mg/kg (S)-I elicited significant place preferences; also recorded: negligible effects		significantly less toxic		higher systolic and diastolic blood pressure than (R)-I

Reference: US12042478B2, “(R)-2-[(2H-1,3-benzodioxol-5-yl)methyl]pyrrolidine and processes for preparation, compositions and uses thereof” (Pharmala Biotech Inc., priority 2022, dated 2024)
